ChEMBL document CHEMBL6083292, “Discovery of Novel N-Sulfonamide-tetrahydroquinolines as Potent Retinoic Acid Receptor-Related Orphan Receptor γt (RORγt) Inverse Agonists for the Treatment of Psoriasis” (J Med Chem, 2024)
Blank lines part the entries; values can stand above or below the compound they belong to. Activity calls are given as the source filed them. The rule behind the calls is not given here.

Assays:
[1] = target: T1, Nuclear receptor ROR-gamma (Homo sapiens, UniProt P51449); test: Inverse agonist activity at APC-labeled RORgammat LBD (unknown origin) assessed as inhibition of europium-labeled SRC-1 recruitment incubated for 1 hrs by dual FRET assay
T1 sequence (P51449 whole entry): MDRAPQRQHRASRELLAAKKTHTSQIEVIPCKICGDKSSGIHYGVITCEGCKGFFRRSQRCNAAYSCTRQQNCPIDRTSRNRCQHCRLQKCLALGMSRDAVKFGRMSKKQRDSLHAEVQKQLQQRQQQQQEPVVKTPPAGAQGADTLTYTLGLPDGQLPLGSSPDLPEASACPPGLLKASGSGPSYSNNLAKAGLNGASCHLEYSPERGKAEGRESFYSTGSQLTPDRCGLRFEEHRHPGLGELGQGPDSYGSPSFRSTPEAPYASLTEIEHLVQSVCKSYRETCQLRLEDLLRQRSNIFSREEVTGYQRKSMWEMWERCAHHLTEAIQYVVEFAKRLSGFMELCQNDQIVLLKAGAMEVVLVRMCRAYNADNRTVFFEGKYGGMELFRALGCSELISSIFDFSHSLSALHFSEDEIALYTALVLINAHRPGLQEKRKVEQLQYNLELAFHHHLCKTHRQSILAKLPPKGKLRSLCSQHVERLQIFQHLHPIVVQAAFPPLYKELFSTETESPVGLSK

Mus musculus [2] = test: Antiinflammatory activity against imiquimod-induced psoriasis BALB/c mouse model assessed as body weight at 5 mg/kg, ip qd for 7 days; format: functional; settings: time 7 day
Mus musculus [3] = test: Antiinflammatory activity against imiquimod-induced psoriasis BALB/c mouse model assessed as reduction in body weight at 5 mg/kg, ip qd for 7 days; format: functional; design: scale not given: the % may be the effect or the level left; settings: time 7 day
Mus musculus [4] = test: Antiinflammatory activity against imiquimod-induced psoriasis BALB/c mouse model assessed as reduction in spleen to body weight ratio at 5 mg/kg, ip qd for 7 days; format: functional, organism-based; settings: time 7.0 day
[5] = Inhibition of mouse Th17 cells differentiation from CD4+ T cells assessed as maximum inhibition flow cytometric analysis relative to control; format: functional
[6] = Inhibition of mouse Th17 cells differentiation from CD4+ T cells flow cytometric analysis
[7] = Metabolic stability in CD-1 mouse liver microsomes assessed as half life preincubated for 5 mins followed by NADPH addition and measured upto 60 mins by LC-MS/MS analysis; format: ADME, Microsome; settings: time < 65 min
[8] = Metabolic stability in CD-1 mouse microsomes assessed as intrinsic clearance preincubated for 5 mins followed by NADPH addition and measured upto 60 mins by LC-MS/MS analysis; format: ADME, Microsome; settings: time < 65 min, read-out: CLH
[9] = Metabolic stability in CD-1 mouse liver assessed as intrinsic clearance preincubated for 5 mins followed by NADPH addition and measured upto 60 mins by LC-MS/MS analysis; format: ADME, tissue-based; settings: time < 65 min, read-out: CLH
Mus musculus [10] = test: Antiinflammatory activity against imiquimod-induced psoriasis BALB/c mouse model assessed as body weight at 100 mg/kg, ip qd for 7 days; format: functional; settings: time 7 day
Mus musculus [11] = test: Antiinflammatory activity against imiquimod-induced psoriasis BALB/c mouse model assessed as reduction in body weight at 100 mg/kg, ip qd for 7 days; format: functional; design: scale not given: the % may be the effect or the level left; settings: time 7 day
Mus musculus [12] = test: Antiinflammatory activity against imiquimod-induced psoriasis BALB/c mouse model assessed as effect on spleen enlargement at 100 mg/kg, ip qd for 7 days; format: functional, organism-based; settings: time 7.0 day
Mus musculus [13] = test: Antiinflammatory activity against imiquimod-induced psoriasis BALB/c mouse model assessed as change in ear thickness at 100 mg/kg, ip qd for 7 days; format: functional, organism-based; settings: time 7.0 day
Mus musculus [14] = test: Antiinflammatory activity against imiquimod-induced psoriasis BALB/c mouse model assessed as change in ear erythema score at 100 mg/kg, ip qd for 7 days; format: functional, organism-based; settings: time 7.0 day
[15] = Drug concentration in pig ear assessed as retention amount at 0.0094 g administered intradermally as 4 % ointment measured at 12 hrs; format: ADME, tissue-based, Sus scrofa; settings: in vivo, other
[16] = Drug concentration in BALB/c mouse plasma at 4 % administered topically as ointment measured at 10 mins; format: ADME, cell-free; settings: topical or ocular
[17] = Drug concentration in BALB/c mouse plasma at 4 % administered topically as ointment measured at 2 hrs; format: ADME, cell-free; settings: topical_or_ocular
[18] = Drug concentration in pig ear assessed as retention amount at 0.0090 g administered intradermally as 4 % ointment measured at 12 hrs; format: ADME, tissue-based, Sus scrofa; settings: in vivo, other
[19] = Drug concentration in pig ear assessed as retention amount at 0.0085 g administered intradermally as 4 % ointment measured at 12 hrs; format: ADME, tissue-based, Sus scrofa; settings: in vivo, other
[20] = Drug concentration in pig ear assessed as retention rate at 0.0094 g administered intradermally as 4 % ointment measured at 12 hrs; format: ADME, tissue-based, Sus scrofa; settings: in vivo, other
[21] = Drug concentration in pig ear assessed as retention rate at 0.0090 g administered intradermally as 4 % ointment measured at 12 hrs; format: ADME, tissue-based, Sus scrofa; settings: in vivo, other
[22] = Drug concentration in pig ear assessed as retention rate at 0.0086 g administered intradermally as 4 % ointment measured at 12 hrs; format: ADME, tissue-based, Sus scrofa; settings: in vivo, other
[23] = Drug concentration in pig ear assessed as retention rate at 0.0085 g administered intradermally as 4 % ointment measured at 12 hrs; format: ADME, tissue-based, Sus scrofa; settings: in vivo, other
[24] = Toxicity in BALB/c mouse assessed as change in body weight at 0.25 to 4 % administered topically as ointment once a day for 11 days; settings: in vivo, topical_or_ocular, 264 h, dose 0.25-4 %, time 11 day
Mus musculus [25] = test: Antiinflammatory activity against imiquimod-induced psoriasis BALB/c mouse model at 0.25 to 4 % administered topically as ointment once a day for 11 days; format: functional, organism-based; settings: dose 0.25-4 %, time 11.0 day
Mus musculus [26] = test: Antiinflammatory activity against imiquimod-induced psoriasis BALB/c mouse model at 4 % administered topically as ointment once a day for 11 days; format: functional, organism-based; settings: time 11.0 day
Mus musculus [27] = test: Antiinflammatory activity against imiquimod-induced psoriasis BALB/c mouse model at 1 to 4 % administered topically as ointment once a day for 11 days; format: functional, organism-based; settings: time 11.0 day
Mus musculus [28] = test: Anti-inflammatory activity in imiquimod-induced BALB/c mouse psoriasis model assessed as reduction in dermal inflammatory cell infiltration at 4 % administered topically as ointment once a day for 11 days by H and E staining based analysis; format: functional, organism-based; settings: time 11.0 day
Mus musculus [29] = test: Anti-inflammatory activity in imiquimod-induced BALB/c mouse psoriasis model assessed as appearance of smooth skin at 4 % administered topically as ointment once a day for 11 days by H and E staining based analysis; format: functional, organism-based; settings: time 11.0 day
Mus musculus [30] = test: Anti-inflammatory activity in imiquimod-induced BALB/c mouse psoriasis model assessed as improvement in spinous cell layer at 4 % administered topically as ointment once a day for 11 days by H and E staining based analysis; format: functional, organism-based; settings: time 11.0 day
Mus musculus [31] = test: Anti-inflammatory activity in imiquimod-induced BALB/c mouse psoriasis model assessed as appearance of clear sebaceous gland at 4 % administered topically as ointment once a day for 11 days by H and E staining based analysis; format: functional, organism-based; settings: time 11.0 day
Mus musculus [32] = test: Anti-inflammatory activity in imiquimod-induced BALB/c mouse psoriasis model assessed as appearance of clear hair follicle at 4 % administered topically as ointment once a day for 11 days by H and E staining based analysis; format: functional, organism-based; settings: time 11.0 day
[33] = Acute toxicity in BALB/c mouse assessed as signs of mortality at 10 to 20 % administered topically as ointment once a day for 12 days; settings: in vivo, topical_or_ocular, 288 h, dose 10-20 %, time 12 day
[34] = Acute toxicity in BALB/c mouse assessed as signs of morbidity at 10 to 20 % administered topically as ointment once a day for 12 days; settings: in vivo, topical_or_ocular, 288 h, dose 10-20 %, time 12 day
[35] = Acute toxicity in BALB/c mouse assessed as body weight gain at 10 to 20 % administered topically as ointment once a day for 12 days; settings: in vivo, topical_or_ocular, 288 h, dose 10-20 %, time 12 day
[36] = Acute toxicity in BALB/c mouse at 20 % administered topically as ointment once a day for 12 days; settings: in vivo, topical_or_ocular, 288 h, time 12 day
[37] = target: Voltage-gated inwardly rectifying potassium channel KCNH2 (Homo sapiens, UniProt Q12809); test: Inhibition of hERG at -80 mV holding potential measured for 2.5 mins; format: toxicity
Voltage-gated inwardly rectifying potassium channel KCNH2, sequence (Q12809 whole entry): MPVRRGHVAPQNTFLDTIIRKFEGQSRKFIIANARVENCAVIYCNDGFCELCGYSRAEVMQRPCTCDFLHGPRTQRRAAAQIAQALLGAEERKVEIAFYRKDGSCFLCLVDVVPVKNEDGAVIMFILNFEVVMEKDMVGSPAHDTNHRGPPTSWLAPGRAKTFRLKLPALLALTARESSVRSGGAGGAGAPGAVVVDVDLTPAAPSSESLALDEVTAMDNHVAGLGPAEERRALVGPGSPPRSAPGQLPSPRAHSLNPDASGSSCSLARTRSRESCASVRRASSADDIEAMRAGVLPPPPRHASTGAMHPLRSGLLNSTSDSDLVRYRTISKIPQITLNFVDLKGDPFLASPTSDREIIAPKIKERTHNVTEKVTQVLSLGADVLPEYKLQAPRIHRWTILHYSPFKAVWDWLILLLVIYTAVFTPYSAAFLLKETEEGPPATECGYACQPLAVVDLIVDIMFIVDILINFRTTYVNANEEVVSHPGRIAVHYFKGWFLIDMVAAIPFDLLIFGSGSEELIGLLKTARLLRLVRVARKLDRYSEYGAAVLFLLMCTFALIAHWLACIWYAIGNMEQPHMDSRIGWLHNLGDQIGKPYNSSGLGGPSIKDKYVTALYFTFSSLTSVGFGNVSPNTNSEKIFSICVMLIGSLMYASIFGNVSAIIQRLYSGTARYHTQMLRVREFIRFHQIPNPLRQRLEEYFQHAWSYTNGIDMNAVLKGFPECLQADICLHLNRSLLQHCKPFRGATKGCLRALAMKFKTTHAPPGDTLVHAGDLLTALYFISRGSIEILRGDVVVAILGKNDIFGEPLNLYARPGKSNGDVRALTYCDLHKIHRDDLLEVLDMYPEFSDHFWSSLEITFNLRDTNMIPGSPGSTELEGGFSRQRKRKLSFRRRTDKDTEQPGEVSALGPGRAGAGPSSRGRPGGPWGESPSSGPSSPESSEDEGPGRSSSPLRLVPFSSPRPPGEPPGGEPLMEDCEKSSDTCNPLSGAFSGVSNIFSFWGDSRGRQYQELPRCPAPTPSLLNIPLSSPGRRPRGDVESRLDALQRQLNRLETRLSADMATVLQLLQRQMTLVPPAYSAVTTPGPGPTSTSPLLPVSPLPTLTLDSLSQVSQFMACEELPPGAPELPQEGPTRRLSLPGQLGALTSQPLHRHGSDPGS

[38] = Toxicity in BALB/c mouse assessed as change in body weight at 4 % administered topically as ointment once a day for 11 days; settings: in vivo, topical_or_ocular, 264 h, time 11 day

Structure (SMILES): CCc1ccc(S(=O)(=O)N2CCCc3cc(N4CCN(C(C)=O)CC4)ccc32)cc1
IC50 [1]: 9.2 µM

Structure (SMILES): CN(Cc1ccccc1)S(=O)(=O)N1CCCc2cc(N3CCN(C(=O)C4CCOC4)CC3)ccc21 (stereo not drawn)
IC50 [1]: 18.6 µM

Structure (SMILES): C[C@@H]1C[C@H]2[C@@H]3CCC4=CC(=O)C=C[C@]4(C)[C@@]3(F)[C@@H](O)C[C@]2(C)[C@@]1(O)C(=O)CO [DEXAMETHASONE]
Activity (Mus musculus [2]): 3.43 g
Activity (Mus musculus [3]): 18%
Activity (Mus musculus [4]): Active

Structure (SMILES): CC(=O)N1CCN(c2ccc(CN(C3CCC3)S(=O)(=O)Cc3ccccc3)cc2)CC1
Imax [5]: 90.1%

Structure (SMILES): CC(=O)N1CCN(c2ccc3c(c2)CCCN3S(=O)(=O)N(C)C(C)c2ccc(F)cc2)CC1 (stereo not drawn)
IC50 [1]: 27 µM

Structure (SMILES): CC(=O)N1CCN(c2ccc3c(c2)C(C)(C)CCN3S(=O)(=O)N(C)Cc2ccccc2)CC1
IC50 [1]: 9.5 µM

Structure (SMILES): CN(Cc1ccccc1)S(=O)(=O)N1CCCc2cc(N3CC4(CCOCC4)C3)ccc21
IC50 [1]: 19.1 µM

Structure (SMILES): CN(Cc1ccc(C(C)(C)C)cc1)S(=O)(=O)N1CCCc2cc(Nc3ccc4c(c3)CCCC4=O)ccc21
IC50 [1]: 0.094 µM
IC50 [6]: 1.57 µM
Imax [5]: 95%
half-life [7]: 18.2 min
microsomal CLint [8]: 76 µL/min/mg
CLint scaled [9]: 301 mL/min/kg
Activity (Mus musculus [10]): 2.41 g
Activity (Mus musculus [11]): 13%
Activity (Mus musculus [12]): Active
Activity (Mus musculus [13]): Active
Activity (Mus musculus [14]): Active
Drug uptake [15]: 0.012 mg
concentration at 10 min [16]: 75 ng/mL
Drug uptake [17]: Not_active
Drug uptake [18]: 0.012 mg
Drug uptake [19]: 0.019 mg
Drug uptake [20]: 5.22%
Drug uptake [21]: 3.27%
Drug uptake [22]: 4.82%
Drug uptake [23]: 5.79%
Activity [24]: Non-toxic
Activity (Mus musculus [25]): Active
Activity (Mus musculus [26]): Active
Activity (Mus musculus [27]): Active
Activity (Mus musculus [28]): Active
Activity (Mus musculus [29]): Active
Activity (Mus musculus [30]): Active
Activity (Mus musculus [31]): Active
Activity (Mus musculus [32]): Active
Activity [33]: Non-toxic
Activity [34]: Non-toxic
Activity [35]: Non-toxic
Activity [36]: Non-toxic
IC50 [37]: > 40 µM

Structure (SMILES): CC(=O)c1ccc(Nc2ccc3c(c2)CCCN3S(=O)(=O)N(C)Cc2ccccc2)cc1
IC50 [1]: 7.6 µM

Structure (SMILES): CN(Cc1ccccc1)S(=O)(=O)N1CCCc2cc(N3CCN(C(=O)C4CCC4)CC3)ccc21
IC50 [1]: 13 µM

Structure (SMILES): CCc1ccc(N(CC(C)C)S(=O)(=O)c2ccc(OCC3CCOCC3)c(CO)c2)cc1 [GSK2981278]
Activity [38]: Non-toxic
Activity (Mus musculus [26]): Active

Structure (SMILES): CCc1ccc(N(C)S(=O)(=O)N2CCCc3cc(N4CCN(C(C)=O)CC4)ccc32)cc1
IC50 [1]: 13.1 µM

Structure (SMILES): CC(=O)N1CCN(c2ccc3c(c2)CCCN3S(=O)(=O)N(C)Cc2ccc(C(F)(F)F)o2)CC1
IC50 [1]: 27 µM

Further compounds by falling IC50 [1], results first:

IC50 [1]: 6.8 µM
Structure (SMILES): CN(Cc1ccccc1)S(=O)(=O)N1CCCc2cc(N3CCN(C(=O)C4CCOCC4)CC3)ccc21

IC50 [1]: 6.6 µM
Structure (SMILES): CC(=O)N1CCN(c2ccc3c(c2)CCCN3S(=O)(=O)N(C)Cc2ccc(SC(F)(F)F)cc2)CC1

IC50 [1]: 4.9 µM
Structure (SMILES): CN(Cc1ccccc1)S(=O)(=O)N1CCCc2cc(N3CCN(C(=O)C(F)(F)F)CC3)ccc21

IC50 [1]: 3.3 µM
Structure (SMILES): CN(Cc1ccccc1)S(=O)(=O)N1CCCc2cc(N3CCN(C(=O)C4CCCC4)CC3)ccc21

IC50 [1]: 1.4 µM
Structure (SMILES): CC(=O)N1CCN(c2ccc3c(c2)CCCN3S(=O)(=O)N(C)Cc2ccc(C(O)(C(F)(F)F)C(F)(F)F)cc2)CC1

IC50 [1]: 0.648 µM
Structure (SMILES): CN(Cc1ccccc1)S(=O)(=O)N1CCCc2cc(N3CC4(COC4)C3)ccc21

IC50 [1]: 0.29 µM
Structure (SMILES): CN(Cc1ccc(C(C)(C)C)cc1)S(=O)(=O)N1CCCc2cc(N3CCC(C(=O)O)CC3)ccc21

IC50 [1]: 0.097 µM
Structure (SMILES): CC(=O)N1CCN(c2ccc3c(c2)N(S(=O)(=O)N(C)Cc2ccccc2)CCC3)CC1

IC50 [1]: 0.021 µM
Structure (SMILES): CC(=O)N1CCN(c2cc(F)c3c(c2)CCCN3S(=O)(=O)N(C)Cc2ccccc2)CC1
